These results are taken from US9512176B2, “Age inhibitors” (Centre National de la Recherche Scientifique, priority 2005, dated 2016).

Non-standard residues stand in square brackets, D forms with d. Residues, ends and D or L forms follow the SMILES beside them. Dap = NC[C@H](N)C(=O)O

Data set [1] deals with seven strains of Salmonella (six mixed strains, strain TA98). In words: Ames test with and without human liver S9 fractions. On the set-up: key to Six mixed strains / Strain TA98: −: non-mutagenic; +: mutagenic. The format is cell-based. Particulars: for Six mixed strains / Strain TA98: mixture with methylglyoxal, 10/1/0.1 μM. The procedure:
An Ames test was performed with L-DAPA-L-Leu (example 1) and L-DAPA-L-Val (example 23) alone and in combination with methylglyoxal on human liver S9 fractions and on seven strains of Salmonella.
The concentrations used in the Ames test were as follows: • L-DAPA-L-Leu alone or L-DAPA-L-Val alone: 10 μM, 1 μM and 0.1 μM. • L-DAPA-L-Leu/methylglyoxal mixture or L-DAPA-L-Val/methylglyoxal mixture: 10 μM, 1 μM and 0.1 μM. • Methylglyoxal: 10 μM.

Data set [2] has as its system lysozyme. Nature of the data set: SDS PAGE electrophoresis of lysozyme incubated with methylglyoxal and inhibitor. The format is biochemical. Particulars: lysozyme 10 mg/ml, methylglyoxal 10 mM, inhibitor equimolar, 37° C., 48 hours. The procedure:
(§1) Ribonuclease A and lysozyme (10 mg/ml) are incubated in the presence of methylglyoxal (10 mM) or in the presence of methylglyoxal and one of the inhibitors according to the present invention in an equimolar quantity at 37° C. After 48 hours of incubation, the proteins are analyzed by polyacrylamide gel electrophoresis (8%-16% SDS PAGE gel).

Data set [3] deals with ribonuclease A. In words: SDS PAGE electrophoresis of ribonuclease A incubated with methylglyoxal and inhibitor. The format is biochemical. Particulars: ribonuclease A 10 mg/ml, methylglyoxal 10 mM, inhibitor equimolar, 37° C., 48 hours. The procedure:
as §1
The AGE inhibitors according to the present invention, namely L-DAPA-L-Leu (example 1) and L-DAPA-L-Ile (example 18), or AG (10 mM) are incubated with MG and ribonuclease A for […] at 37° C.

On to `CC(C)C[C@H](NC(=O)[C@@H](N)CN)C(=O)O` [example 1, L-DAPA-L-Leu.2HCl] (H-[Dap]-Leu-OH), for which the Six mixed strains result in data set [1] (Human S9: No) and in data set [1] (Human S9: Yes (metabolites)) was “−” throughout. The “Strain TA98” value in data set [1] (Human S9: No) and in data set [1] (Human S9: Yes (metabolites)) was “−” throughout. For the same molecule, the “mutagenicity” value in data set [1] (alone or in combination with methylglyoxal, TA98, mixed strains, human liver S9 fractions) is listed as “neither substance (L-DAPA-L-Leu or L-DAPA-L-Val) was mutagenic”. Besides, the “protection from structural modifications (dimer form) caused by methylglyoxal” value in data set [2] and in data set [3] was “provides protection” throughout.
